The values below come from patent US9642369B2 (dated 2017).

SMILES strings stand for the structures.

What is called melting point is the temperature of the solid-liquid transition.

For `CN(C)CCCNS(=O)(=O)c1cccc2c(N(C)C)cccc12` (hydrate or solvate), the melting point is 122 to 124 °C.
To `CCOP(=O)(CCC[N+](C)(C)CCCNS(=O)(=O)c1cccc2c(N(C)C)cccc12)OCC.[Br-]` belongs 34 to 36 °C.
